Residues, ends and D or L forms follow the SMILES beside them. *: point of attachment. Myristoyl = CCCCCCCCCCCCCC(=O)*
Tests used:
[1] = biological target: T1, cGMP-dependent protein kinase (PKG) (Homo sapiens, UniProt Q13976); test: PKG activity in NHBE cells; assay type: cell-based; conditions: 100 μM
T1 construct: endogenous in cells; host or cells: NHBE cells
T1 sequence (Q13976 1-671): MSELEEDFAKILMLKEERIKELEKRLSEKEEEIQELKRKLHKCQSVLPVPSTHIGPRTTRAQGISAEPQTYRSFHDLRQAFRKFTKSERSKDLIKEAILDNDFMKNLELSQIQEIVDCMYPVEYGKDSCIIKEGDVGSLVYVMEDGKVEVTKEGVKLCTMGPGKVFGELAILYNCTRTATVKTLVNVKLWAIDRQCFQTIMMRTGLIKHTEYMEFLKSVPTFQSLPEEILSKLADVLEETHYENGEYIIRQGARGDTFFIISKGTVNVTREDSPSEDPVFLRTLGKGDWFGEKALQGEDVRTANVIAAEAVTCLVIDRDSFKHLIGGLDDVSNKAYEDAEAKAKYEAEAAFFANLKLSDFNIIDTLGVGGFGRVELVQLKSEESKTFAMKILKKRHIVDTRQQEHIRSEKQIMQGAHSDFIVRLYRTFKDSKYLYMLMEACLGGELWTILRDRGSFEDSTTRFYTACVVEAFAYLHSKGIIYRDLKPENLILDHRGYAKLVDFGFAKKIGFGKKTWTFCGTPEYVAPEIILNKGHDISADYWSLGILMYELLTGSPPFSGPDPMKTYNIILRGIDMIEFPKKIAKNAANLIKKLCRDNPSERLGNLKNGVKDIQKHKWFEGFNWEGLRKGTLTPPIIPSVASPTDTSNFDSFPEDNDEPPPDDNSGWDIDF
Experimental: Phosphorylation of MARCKS by PMA was attenuated by Calphostin C (500 nM). NHBE cells also contained substantial amounts of cGMP-dependent protein kinase type 1α (PKG-1α) activity, which was localized to the cytosolic fraction. […] In addition, the phosphorylation of MARCKS induced by PMA was reversed by incubation with 8-Br-cGMP (10 μM).

NHBE cells = test: PMA+8-Br-cGMP-induced mucin secretion from NHBE cells (ELISA); assay type: cell-based, human; conditions: pre- and co-incubation with 100 nM PMA+1 μM 8-Br-cGMP (Results-M-1A/M-3A)
Experimental: Peptide Blocking Studies—NHBE cells were preincubated with either the MANS or the RNS peptide (1-100 μM) for 15 min, and then PMA (100 nM)+8-Br-cGMP (1 μM) or UTP (100 μM) was added, and cells were incubated for an additional 15 min or 2 h. respectively. Mucin secretion was measured by ELISA and experimental results are designated as Results-I-2B-1 and Results-I-2B-2, as follows. […]
Measurement of Mucin Secretion by ELISA—Before collection of “base line” and “test” mucin samples, the accumulated mucus at the apical surface of the cells was removed by washing with phosphate-buffered saline, pH 7.2. To collect the base-line secretion, cells were incubated with medium alone, and secreted mucin in the apical medium was collected and reserved. Cells were rested for 24 h and then exposed to medium containing the selected stimulatory and/or inhibitory reagents (or appropriate controls), after which secreted mucin was collected and reserved as the test sample. Incubation times for the base line and the test were the same but varied depending on the test reagent utilized. Both base line and test secretions were analyzed by ELISA using an antibody capture method as known in the art. See, e.g., Harlow et al., Antibodies: A Laboratory Manual, pp. 570-573, Cold Spring Harbor Laboratory, Cold Spring Harbor, N.Y. (1988). The primary antibody for this assay was 17Q2 (Babco, Richmond, Calif.), a monoclonal antibody that reacts specifically with a carbohydrate epitope on human airway mucins. The ratio of test/base-line mucin, which is similar to a “secretory index”, was used to quantify mucin secretion, allowing each culture dish to serve as its own control and thus, minimizing deviation caused by variability among culture wells. Wright et al., Am. J. Physiol. 271, L854-L861 (1996). Levels of mucin secretion were reported as percentage of the medium control.
MARCKS-related Peptides—Both the myristoylated N-terminal sequence (MANS) and the random N-terminal sequence (RNS) peptides were synthesized at Genemed Synthesis, Inc. (San Francisco, Calif.), then purified by high pressure liquid chromatography (>95% pure), and confirmed by mass spectroscopy with each showing one single peak with an appropriate molecular mass. The MANS peptide consisted of sequence identical to the first 24 amino acids of MARCKS, i.e. the myristoylated N-terminal region that mediates MARCKS insertion into membranes, MA-[…] (SEQ ID NO: 1) (where MA=N-terminal myristate chain). The corresponding control peptide (RNS) contained the same amino acid composition as the MANS but arranged in random order, MA-[…] (SEQ ID NO: 26). The presence of the hydrophobic myristate moiety in these synthetic peptides enhances their permeability to the plasma membranes, enabling the peptides to be taken up readily by cells. To determine the effects of these peptides on mucin secretion, cells were preincubated with the peptides for 15 min prior to addition of secretagogues, and mucin secretion was then measured by ELISA.
Antisense Oligonucleotides—MARCKS antisense oligonucleotide and its corresponding control oligonucleotide were synthesized at Biognostik GmbH (Gottingen, Germany). NHBE cells were treated with 5 μM antisense or control oligonucleotide apically for 3 days (in the presence of 2 μg/ml lipofectin for the first 24 h). Cells were then incubated with secretagogues, and mucin secretion was measured by ELISA. Total RNA and protein were isolated from treated cells. MARCKS mRNA was assessed by Northern hybridization according to conventional procedures using human MARCKS cDNA as a probe. MARCKS protein level was determined by Western blot using purified anti-MARCKS IgG1 (clone 2F12) as the primary detection antibody.
The effect on mucus secretion of a myristoylated peptide containing the first 24 amino acids of the human MARCKS protein (MANS; myristoylated N-terminal sequence; SEQ ID NO: ) was tested. Cultured normal human bronchial epithelial cells as described above were used. […]

[2] = test system: human bronchial epithelial cells; test: Basal (constitutive) mucin secretion by human bronchial epithelial cells; assay type: cell-based; conditions: one hour incubation
Experimental: Mucus secreted from the airway epithelial cells in vitro after stimulation by activators was assessed using an ELISA (antibody capture method) (E. Harlow, D. Lane. “Antibodies: A Laboratory Manual.” New York: Cold Spring Harbor Laboratory Press, 1988), wherein the collected mucus is bound directly to the ELISA plate. Mucus was detected using an antibody raised against monkey airway mucus (Lin et al. Am J Respir Cell Mol Biol 1:41, 1989).
The MANS peptide (100 μM) was also found to decrease constitutive (basal) mucus secretion by one hour incubation. Cells were treated as described above except that no PMA or 8-Br-cGMP was used. […] Results, designated as Results-M-1B, are presented as follows and show the inhibition of basal mucin secretion by human bronchial epithelial cells exposed to the MANS peptide (SEQ ID NO: 1) or a negative control peptide consisting of the same amino acids as the MANS peptide, but in random order (RNS peptide; random N-terminal sequence (SEQ ID NO: 26):
The effect of MA-PSD peptide (1, 10 and 100 μM) on basal mucin secretion was also measured. Cells as described above were incubated for one hour with the MA-PSD peptide (no PMA or 8-Br-cGMP).

| SMILES | PKG activity [1] | Mucin secretion level relative to media control (NHBE cells; peptide 1 μM) | Mucin secretion level relative to media control (NHBE cells; peptide 10 μM) | Mucin secretion level relative to media control (NHBE cells; peptide 100 μM) | Basal mucin secretion level relative to control ([2]; peptide 1 μM) | Basal mucin secretion level relative to control ([2]; peptide 10 μM) | Basal mucin secretion level relative to control ([2]; peptide 100 μM, no PMA or 8-Br-cGMP) |
| --- | --- | --- | --- | --- | --- | --- | --- |
| CCCC(=O)Nc1nc2c(ncn2[C@@H]2O[C@@H]3COP(=O)(O)O[C@H]3[C@H]2OC(=O)CCC)c(=O)[nH]1 [dibutryl cGMP] | increased |  |  |  |  |  |  |
| CCCCCCCCCCCCCC(=O)N[C@@H](CCCCN)C(=O)N[C@@H](CCCCN)C(=O)N[C@@H](CCCCN)C(=O)N[C@@H](CCCCN)C(=O)N[C@@H](CCCCN)C(=O)N[C@@H](CCCNC(=N)N)C(=O)N[C@@H](Cc1ccccc1)C(=O)N[C@@H](CO)C(=O)N[C@@H](Cc1ccccc1)C(=O)N[C@@H](CCCCN)C(=O)N[C@@H](CCCCN)C(=O)N[C@@H](CO)C(=O)N[C@@H](Cc1ccccc1)C(=O)N[C@@H](CCCCN)C(=O)N[C@@H](CC(C)C)C(=O)N[C@@H](CO)C(=O)NCC(=O)N[C@@H](Cc1ccccc1)C(=O)N[C@@H](CO)C(=O)N[C@@H](Cc1ccccc1)C(=O)N[C@@H](CCCCN)C(=O)N[C@@H](CCCCN)C(=O)N[C@@H](CC(N)=O)C(=O)N[C@@H](CCCCN)C(=O)N[C@@H](CCCCN)C(=O)O [MA-PSD peptide] (Myristoyl-KKKKKRFSFKKSFKLSGFSFKKNKK-OH; C-terminus assumed) |  | 226% | 316% | 191% | 102% | 91% | 285% |

Reference: patent publication US8501911B2, “Methods of reducing inflammation and mucus hypersecretion” (Biomarck Pharmaceuticals, Ltd, priority 1999, dated 2013)
